Type in all cases: cell-based
Assay [1] relates to hepatocellular carcinoma cell line Hep3B. As to the kind of experiment: Growth inhibition of Hep3B cells, 48 hr treatment, Hoechst 33342 nucleus count (GE InCell 2200). Conditions: Homo sapiens. The gist of the method:
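Compound exposure lasted 48 hr at 37° C, 5% CO2. Surviving nuclei were counted after Hoechst 33342 staining, and survival was expressed as the treated/non-treated cell number ratio, including the ratio at 10 μM compound.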

Assay [2] relates to NCI-H460 human lung cancer cell line. As to the kind of experiment: MTS cell viability assay (NCI-60 methodology), GI50/LC50, NCI-H460. Conditions: 48 h, NCI-H460 cells, 2 days incubation with compound. As to the method:
(§1) The number of treated cells was determined by GE InCell 2200 system, and treated cells were stained with Hoechst 33342 which can reveal the remained nucleus in culture plate. The proportion of survival cells then were calculated with the ratio of treated/non-treated cells. The growth inhibition/cytotoxic effect of selected compounds were evaluated by the following protocol of NCI-60 screening platform. The human tumor cell lines are plating on a 96 well plate in a fixed density 24 hr prior compound treatment. Compounds with multiple concentrations are then added into each well for further 48 hr incubation. Cell viability is assessed by MTS method and the potency of compound is represented by GI50 and LC50 calculated by MTS result.
(§2) The cell viability measurement is based on the NCI-60 screening methodology (Nat. Rev. Cancer 6, 813-823, 2006). Briefly, cells are inoculated into 96-well plates at the optimal plating density. After 24 h, one of the two plates for each cell line is processed to determine a time zero cell viability (Tz) by MTS assay (Promega). Compounds are added over a 2-fold serial dilution to provide a total five drug concentrations plus DMSO control. Plates are incubated for a further 2 days, then measured cell viability by MTS assay [control growth (C) and test growth in the presence of drug at the five concentration levels (Ti)]. Growth inhibition of 50% (GI50) is calculated from [(Ti−Tz)/(C−Tz)]×100=50, which is the drug concentration resulting in a 50% reduction of control cells during the drug incubation. The LC50 is calculated from [(Ti−Tz)/Tz]×100=−50, which is the drug concentration resulting in a 50% reduction at the end of the drug treatment as compared to that at the beginning.
(§3) Herein, Hep3B refers to hepatocellular carcinoma cell line, SW480 refers to colon adenocarcinoma cell line, and NCI-H460 refers to human lung cancer cell line.
On the technique in general: Tetrazolium assays rely on reduction of a dye to a coloured formazan, in cell work by metabolically active cells.

Assay [3] relates to Hep3B hepatocellular carcinoma cell line. Put plainly: MTS cell viability assay (NCI-60 methodology), GI50/LC50, Hep3B. To be noted: Homo sapiens, 48 h, Hep3B cells, 2 days incubation with compound. The procedure:
as §1, §2, §3

The test system of assay [4] is SW480 colon adenocarcinoma cell line. As to the kind of experiment: MTS cell viability assay (NCI-60 methodology), GI50/LC50, SW480. Conditions: Homo sapiens, 48 h, SW480 cells, 2 days incubation with compound. The procedure: as §1, §2, §3
Where [5] appears, read: Table 1, ratio of number of tumor cells treated with 10 μM compound to non-treated cells.
The mark [6] stands for this setting: Table 5, ratio of number of tumor cells treated with 10 μM compound to non-treated cells.

As to `CCOc1ccc(-c2nnc(NC(=O)Cc3ccc4nc(N)sc4c3)s2)c(OCC)c1` [Compound 1-18, 2-(2-aminobenzo[d]thiazol-6-yl)-N-(5-(2,4-diethoxyphenyl)-1,3,4-thiadiazol-2-yl)acetamide], in assay [1] (setting [5]), the viability at 10 µM came out at 70%. In addition, in assay [2], the GI50 worked out at 200 nM and the LC50 (concentration giving 50% net cell loss versus time zero, NCI-60 definition) was 600 nM. Besides, in assay [3], the concentration for 50% growth inhibition (GI50) was determined as 160 nM and the median lethal concentration (LC50) is 480 nM. In assay [4], the GI50 was 190 nM and the LC50 (NCI-60 lethal concentration, 50% net cell loss vs time zero) worked out at 580 nM.
With `CCC(CC)Oc1ccccc1-c1nnc(NC(=O)Cc2ccc3nc(N)sc3c2)s1` [Compound 1-22, 2-(2-aminobenzo[d]thiazol-6-yl)-N-(5-(2-(pentan-3-yloxy)phenyl)-1,3,4-thiadiazol-2-yl)acetamide], in assay [1] (setting [5]), the viability at 10 µM worked out at 66%. Also, the concentration for 50% growth inhibition (GI50) was found to be 2670 nM in assay [2], 90 nM in assay [3] and 1230 nM in assay [4]. Besides, the LC50 in assay [3] came out at 8360 nM.
In the case of `CCCCOc1cc(OCC)ccc1-c1nnc(NC(=O)Cc2ccc3nc(N)sc3c2)s1` [Compound 1-23, 2-(2-aminobenzo[d]thiazol-6-yl)-N-(5-(2-butoxy-4-ethoxyphenyl)-1,3,4-thiadiazol-2-yl)acetamide], the viability at 10 µM in assay [1] (setting [5]) stood at 71%. In addition, in assay [2], the concentration for 50% growth inhibition (GI50) worked out at 580 nM and the LC50 (concentration giving 50% net cell loss versus time zero, NCI-60 definition) amounted to 580 nM. In assay [3], the 50% growth inhibitory concentration (GI50) was 480 nM and the LC50 amounted to 480 nM. In assay [4], the 50% growth inhibitory concentration (GI50) was determined as 520 nM and the LC50 (NCI-60 lethal concentration, 50% net cell loss vs time zero) stood at 520 nM.
Consider `CCOc1cnccc1-c1nnc(NC(=O)Cc2ccc3nc(N)sc3c2)s1` [Compound 1-25, 2-(2-aminobenzo[d]thiazol-6-yl)-N-(5-(3-ethoxypyridin-4-yl)-1,3,4-thiadiazol-2-yl)acetamide], for which the viability at 10 µM in assay [1] (setting [5]) came to 54%. The GI50 in assay [2] turned out to be 320 nM. Moreover, in assay [3], the GI50 is 170 nM and the LC50 was found to be 500 nM. Moreover, in assay [4], the concentration for 50% growth inhibition (GI50) was 350 nM and the LC50 (NCI-60 lethal concentration, 50% net cell loss vs time zero) is 1040 nM.
As for `CCOCOc1cc(OCC)ccc1-c1nnc(NC(=O)Cc2ccc3nc(N)sc3c2)s1` [Compound 1-26, 2-(2-aminobenzo[d]thiazol-6-yl)-N-(5-(4-ethoxy-2-(ethoxymethoxy)phenyl)-1,3,4-thiadiazol-2-yl)acetamide], in assay [1] (setting [5]), the viability at 10 µM came to 59%. Also, in assay [2], the GI50 was determined as 200 nM and the LC50 (concentration giving 50% net cell loss versus time zero, NCI-60 definition) is 590 nM. Moreover, in assay [3], the GI50 worked out at 160 nM and the LC50 is 490 nM. Further, in assay [4], the GI50 was 210 nM and the LC50 (NCI-60 lethal concentration, 50% net cell loss vs time zero) was found to be 630 nM.
With `CCOc1cc(OCC)c(-c2nnc(N(C)C(=O)Cc3ccc4nc(N)sc4c3)s2)cn1` [Compound 1-37, 2-(2-aminobenzo[d]thiazol-6-yl)-N-(5-(4,6-diethoxypyridin-3-yl)-1,3,4-thiadiazol-2-yl)-N-methylacetamide], the viability at 10 µM in assay [1] (setting [5]) is 47%. Further, the values for the 50% growth inhibitory concentration (GI50) in assay [2], in assay [3] and in assay [4] were 1350 nM, 840 nM and 1260 nM, respectively. Moreover, the median lethal concentration (LC50) in assay [3] worked out at 1240 nM.
In the case of `Nc1nc2ccc(CC(=O)Nc3nc(-c4ccc(Br)cc4)c(-c4ccc(Br)cc4)s3)cc2s1` [Compound 3-10, 2-(2-aminobenzo[d]thiazol-6-yl)-N-(4,5-bis(4-bromophenyl)thiazol-2-yl)acetamide], in assay [1] (Table 3, ratio of number of tumor cells treated with 10 μM compound to non-treated cells), the viability at 10 µM is 52%. Also, in assay [2], the GI50 amounted to 840 nM and the LC50 (concentration giving 50% net cell loss versus time zero, NCI-60 definition) turned out to be 6620 nM. Further, in assay [3], the GI50 came to 510 nM and the median lethal concentration (LC50) amounted to 1290 nM. Moreover, in assay [4], the GI50 was determined as 1210 nM and the LC50 (NCI-60 lethal concentration, 50% net cell loss vs time zero) came out at 7080 nM.
In the case of `CCOc1ccc(-c2nc(NC(=O)c3ccc([N+](=O)[O-])s3)sc2Oc2ccccc2)cc1` [Compound 5-6, N-(4-(4-ethoxyphenyl)-5-phenoxythiazol-2-yl)-5-nitrothiophene-2-carboxamide], in assay [1] (setting [6]), the viability at 10 µM amounted to 42%. Moreover, in assay [2], the 50% growth inhibitory concentration (GI50) worked out at 1170 nM and the LC50 (concentration giving 50% net cell loss versus time zero, NCI-60 definition) stood at 3990 nM. Moreover, in assay [3], the GI50 amounted to 1100 nM and the 50% lethal concentration (LC50) worked out at 4350 nM. In assay [4], the GI50 was found to be 2590 nM and the LC50 (NCI-60 lethal concentration, 50% net cell loss vs time zero) came out at 5520 nM.
`O=C(Nc1nc(-c2ccc(Br)cc2)c(Oc2ccc(C(F)(F)F)cc2)s1)c1ccc([N+](=O)[O-])s1` [Compound 5-7, N-(4-(4-bromophenyl)-5-(4-(trifluoromethyl)phenoxy)thiazol-2-yl)-5-nitrothiophene-2-carboxamide]: the viability at 10 µM in assay [1] (setting [6]) is 31%. In addition, in assay [2], the GI50 came out at 850 nM and the LC50 (concentration giving 50% net cell loss versus time zero, NCI-60 definition) amounted to 1850 nM. For the same compound, in assay [3], the concentration for 50% growth inhibition (GI50) was found to be 630 nM and the LC50 was 1230 nM. Also, in assay [4], the 50% growth inhibitory concentration (GI50) is 320 nM and the LC50 (NCI-60 lethal concentration, 50% net cell loss vs time zero) is 2800 nM.
In the case of `O=C(Nc1nc(-c2ccc(Br)cc2)c(Oc2cccc(C(F)(F)F)c2)s1)c1ccc([N+](=O)[O-])s1` [Compound 5-11, N-(4-(4-bromophenyl)-5-(3-(trifluoromethyl)phenoxy)thiazol-2-yl)-5-nitrothiophene-2-carboxamide], in assay [1] (setting [6]), the viability at 10 µM worked out at 21%. Moreover, the values for the GI50 in assay [2], in assay [3] and in assay [4] were 630 nM, 6540 nM and 7040 nM, respectively. Further, the LC50 (concentration giving 50% net cell loss versus time zero, NCI-60 definition) in assay [2] came out at 3980 nM.
Consider `CC(C)(C)c1ccc(-c2nc(NC(=O)c3ccc([N+](=O)[O-])s3)sc2Oc2ccccc2)cc1` [Compound 5-14, N-(4-(4-(tert-butyl)phenyl)-5-phenoxythiazol-2-yl)-5-nitrothiophene-2-carboxamide], for which the viability at 10 µM in assay [1] (setting [6]) stood at 50%. Also, the GI50 came to 1720 nM in assay [2], 340 nM in assay [3] and 1510 nM in assay [4]. The 50% lethal concentration (LC50) in assay [3] stood at 7350 nM.
For `CCCOc1ccc(-c2nc(NC(=O)c3ccc([N+](=O)[O-])s3)sc2Oc2cccc(C(F)(F)F)c2)cc1` [Compound 5-17, 5-nitro-N-(4-(4-propoxyphenyl)-5-(3-(trifluoromethyl)phenoxy)thiazol-2-yl)thiophene-2-carboxamide], the viability at 10 µM in assay [1] (setting [6]) was 37%. Moreover, in assay [2], the GI50 came to 1160 nM and the LC50 (concentration giving 50% net cell loss versus time zero, NCI-60 definition) was determined as 2290 nM. For the same compound, in assay [3], the GI50 is 300 nM and the LC50 was found to be 1600 nM. For the same compound, in assay [4], the 50% growth inhibitory concentration (GI50) stood at 1260 nM and the LC50 (NCI-60 lethal concentration, 50% net cell loss vs time zero) stood at 2410 nM.
Regarding `O=C(Nc1nc(-c2ccc(Br)cc2)c(Oc2ccccc2C(F)(F)F)s1)c1ccc([N+](=O)[O-])s1` [Compound 5-19, N-(4-(4-bromophenyl)-5-(2-(trifluoromethyl)phenoxy)thiazol-2-yl)-5-nitrothiophene-2-carboxamide], in assay [1] (setting [6]), the viability at 10 µM amounted to 62%. The concentration for 50% growth inhibition (GI50) stood at 2880 nM in assay [2], 1790 nM in assay [3] and 1510 nM in assay [4]. Further, in assay [3], the LC50 came out at 3910 nM. In addition, the LC50 (NCI-60 lethal concentration, 50% net cell loss vs time zero) in assay [4] was found to be 3940 nM.
Take `CC(C)(C)c1ccc(-c2nc(NC(=O)c3ccc([N+](=O)[O-])s3)sc2Oc2ccc(F)cc2)cc1` [Compound 5-20, N-(4-(4-(tert-butyl)phenyl)-5-(4-fluorophenoxy)thiazol-2-yl)-5-nitrothiophene-2-carboxamide]: in assay [1] (setting [6]), the viability at 10 µM is 62%. In assay [2], the GI50 amounted to 2760 nM and the LC50 (concentration giving 50% net cell loss versus time zero, NCI-60 definition) came out at 8340 nM. For the same compound, in assay [3], the GI50 worked out at 790 nM and the LC50 was 2630 nM. Besides, in assay [4], the 50% growth inhibitory concentration (GI50) amounted to 880 nM and the LC50 (NCI-60 lethal concentration, 50% net cell loss vs time zero) was found to be 3730 nM.
In the case of `CC(C)(C)c1ccc(-c2nc(NC(=O)c3ccc([N+](=O)[O-])s3)sc2Oc2cccc(F)c2)cc1` [Compound 5-22, N-(4-(4-(tert-butyl)phenyl)-5-(3-fluorophenoxy)thiazol-2-yl)-5-nitrothiophene-2-carboxamide], in assay [1] (setting [6]), the viability at 10 µM was found to be 30%. For the same compound, in assay [2], the GI50 was 2090 nM and the LC50 (concentration giving 50% net cell loss versus time zero, NCI-60 definition) was determined as 4530 nM. Further, in assay [3], the concentration for 50% growth inhibition (GI50) was determined as 1430 nM and the LC50 came to 4030 nM. Further, in assay [4], the GI50 amounted to 2500 nM and the LC50 (NCI-60 lethal concentration, 50% net cell loss vs time zero) is 4270 nM.

A word on the viability: it is the share of living cells, or the viability signal relative to a control. As a reminder, the GI50 is the concentration giving 50% growth inhibition. Usually LC50 stands for the concentration that kills 50% of the test population.

The values above are taken from patent publication US11174253B2, “Compound and pharmaceutical composition containing the same” (ALPHALA CO., LTD., priority 2017, dated 2021).
